Test results as given in PMC12298827, “Subchronic Toxicities of Four Per- and Polyfluoroalkyl Substances (PFASs) by Oral Exposure in Sprague–Dawley Rats” (Toxics, 2025).

System: male and female Sprague–Dawley rats
Experiment: 90-day subchronic oral gavage toxicity study
Assay type: in vivo, rat
Settings: male
Description: Subchronic (90-day) studies were performed in accordance with current U.S. EPA’s Toxic Substances Control Act Good Laboratory Practice (GLP) Standards, with the following two general exceptions to the GLP guidelines: Analysis of the dose formulations was conducted according to RTI-approved Standard Operating Procedures, and corn oil (the vehicle) was not characterized (certificate of analysis from the vendor is available in the appendices to the final reports). Male and female Sprague–Dawley rats (five dose levels plus a control, n = 10/sex/dose group, corn oil vehicle dose volume of 3 mL/kg; oral gavage) were used in these studies, and the rats were euthanized on SD 91. The dose levels for PFHI were 0, 12.5, 25, 50, 100, and 200 mg/kg-day. The dose levels for MHFPK were 0, 18.8, 37.5, 75, 150, and 300 mg/kg-day. The dose levels for PFNAC were 0, 0.1, 0.3, 1.0, 3.0, and 10 mg/kg-day for male rats and 0, 0.3, 1.0, 3.0, 10, and 30 mg/kg-day for female rats. For CTFPA, the dose levels were 0, 1.9, 3.8. 7.5, 15, and 30 mg/kg-day for male rats and 0, 6.3, 12.5, 25, 50, and 100 mg/kg-day for female rats. For each PFAS, three batches of dosing solution were prepared. The time between the batch preparation of the dosing solutions ranged between 29 and 39 days. Blood samples were collected from all the rats at termination for serum chemistry, hematology, coagulation, and the analysis of the parent PFAS chemical in the plasma. In vivo data collection and further detail on the endpoints examined postmortem are described below.
The rats were observed twice daily for morbidity and mortality throughout the study period. At least once prior to randomization to test groups and weekly thereafter, the rats were physically examined, and bodyweights were obtained. Feed consumption was quantified weekly starting on SD 1.
Neurotoxicity was evaluated using the functional observational battery (FOB) and measuring locomotor activity (LMA) 2–4 h post dosing on SDs 78–80 and 80–84, respectively. For both the 14- and 90-day studies, an ophthalmologic examination was conducted prior to randomization and near the end of the study, using indirect ophthalmoscopy and slit–lamp biomicroscopy (as needed) after the administration of a mydriatic solution.
Hematology, biochemistry, and coagulation endpoints were measured at the termination of the study. A Siemens Advia 2120i hematology analyzer (Siemens Healthineers, Erlangen, Germany) was used to measure (or calculate) the parameters related to the complete blood count, leukocyte differential count, and reticulocyte count. The hematology parameters are listed and described in Table 2. The prothrombin time […] and activated partial thromboplastin time (APTT) were measured using an Instrumentation Laboratory (Bedford, MA, USA) ACL Elite Pro coagulation analyzer (laser–nephelometric centrifugal method).
At necropsy, the rats were visually examined for external abnormalities and organ weights (absolute and relative to the BW and brain weight), which were recorded (paired organs weighed together). The tissues were preserved in 10% neutral buffered formalin (NBF), except for the ocular tissues, testes, and epididymides, which were preserved in modified Davidson’s fixative and later transferred to 10% NBF. Bone marrow smears were prepared from the femurs, and the slides were air-dried, fixed in methanol, stained, and stored at room temperature for possible future evaluation. The preserved tissues were embedded in paraffin, sectioned, stained with hematoxylin and eosin, and examined by a board-certified veterinary pathologist.
Statistical analysis was performed using Provantis™ Version 10 or greater (Instem LSS, Limited; Stone, Staffordshire, UK). Differences among the treatment groups compared to the control were evaluated using one-way analysis of variance (ANOVA) if the underlying assumptions of a normal distribution (Shapiro–Wilk test) and the homogeneity of the variance (Levene’s test) were satisfied. […]

CC(=O)C(F)(F)C(F)(F)C(F)(F)F [MHFPK, Methyl heptafluoropropyl ketone]
ALB (75 mg/kg-day): 3.18 ± 0.15 g/dL
ALPi (75 mg/kg-day): 121.9±37.5 U/L
APTT (75 mg/kg-day): 17.79 s
BUN (75 mg/kg-day): 15.8 ± 1.8 mg/dL
CHOL (75 mg/kg-day): 67.2 ± 7.1 mg/dL
GLOB (75 mg/kg-day): 3.70 ± 0.19 g/dL
GLUC (75 mg/kg-day): 214.9 ± 18.3 mg/dL
HCT (75 mg/kg-day): 50.90±1.81%
HGB (75 mg/kg-day): 15.70 ± 0.72 g/dL
Kidney Weight (75 mg/kg-day): 3.25 g
Kidney/Body Weight (75 mg/kg-day): 0.54%
Kidney/Brain Weight (75 mg/kg-day): 146%
Liver Weight (75 mg/kg-day): 15.73 g
Liver/Body Weight (75 mg/kg-day): 2.62%
Liver/Brain Weight (75 mg/kg-day): 706%
MPV (75 mg/kg-day): 7.92 ± 0.76 fL
PT (75 mg/kg-day): 16.37 s
RBC (75 mg/kg-day): 9.195±0.417 M/µL
Total BW change (75 mg/kg-day): 308.68 g
Total Food Consumed (75 mg/kg-day): 2218 g
% BW Gain (150 mg/kg-day): 104.78%
% Diff, % BW Gain (150 mg/kg-day): 7.09%
% Diff, Total BW change (150 mg/kg-day): 6.62%
% Diff, Total Food Consumed (150 mg/kg-day): 3.52%
A/G (150 mg/kg-day): 0.85±0.05 ratio
ABNEUT (150 mg/kg-day): 1.761±0.490 K/µL
ABRETi (150 mg/kg-day): 181.45±26.70 10^9/L
ABSEOS (150 mg/kg-day): 0.155±0.028 K/µL
ALB (150 mg/kg-day): 3.16 ± 0.18 g/dL
ALPi (150 mg/kg-day): 123.9±21.1 U/L
APTT (150 mg/kg-day): 18.41 s
BUN (150 mg/kg-day): 14.6 ± 1.7 mg/dL
CHOL (150 mg/kg-day): 71.1 ± 12.3 mg/dL
Decrease in the adrenal/BW ratio (150 mg/kg-day): 20%
GLOB (150 mg/kg-day): 3.72 ± 0.20 g/dL
GLUC (150 mg/kg-day): 206.8 ± 44.7 mg/dL
HCT (150 mg/kg-day): 50.21±1.86%
HGB (150 mg/kg-day): 15.30 ± 0.78 g/dL
Kidney Weight (150 mg/kg-day): 3.28 g
Kidney/Body Weight (150 mg/kg-day): 0.54%
Kidney/Brain Weight (150 mg/kg-day): 150%
Liver Weight (150 mg/kg-day): 15.50 g
Liver/Body Weight (150 mg/kg-day): 2.54%
Liver/Brain Weight (150 mg/kg-day): 709%
MPV (150 mg/kg-day): 8.53 ± 0.84 fL
PT (150 mg/kg-day): 16.77 s
RBC (150 mg/kg-day): 9.254±0.319 M/µL
Total BW change (150 mg/kg-day): 313.14 g
Total Food Consumed (150 mg/kg-day): 2253 g
% BW Gain (300 mg/kg-day): 102.36%
% Diff, % BW Gain (300 mg/kg-day): 4.62%
% Diff, Total BW change (300 mg/kg-day): 2.35%
% Diff, Total Food Consumed (300 mg/kg-day): 0.89%
A/G (300 mg/kg-day): 0.88±0.07 ratio
ABNEUT (300 mg/kg-day): 1.674±0.435 K/µL
ABRETi (300 mg/kg-day): 174.98±22.88 10^9/L
ABSEOS (300 mg/kg-day): 0.139±0.055 K/µL
ALB (300 mg/kg-day): 3.24 ± 0.18 g/dL
ALPi (300 mg/kg-day): 123.2±28.8 U/L
APTT (300 mg/kg-day): 17.66 s
Adrenal/BW ratio (300 mg/kg-day): no effect
BUN (300 mg/kg-day): 14.8 ± 3.7 mg/dL
CHOL (300 mg/kg-day): 76.0 ± 22.0 mg/dL
GLOB (300 mg/kg-day): 3.70 ± 0.19 g/dL
GLUC (300 mg/kg-day): 206.4 ± 24.4 mg/dL
HCT (300 mg/kg-day): 49.25±1.52%
HGB (300 mg/kg-day): 15.18 ± 0.47 g/dL
Kidney Weight (300 mg/kg-day): 3.24 g
Kidney/Body Weight (300 mg/kg-day): 0.55%
Kidney/Brain Weight (300 mg/kg-day): 144%
Liver Weight (300 mg/kg-day): 15.58 g
Liver/Body Weight (300 mg/kg-day): 2.61%
Liver/Brain Weight (300 mg/kg-day): 693%
MPV (300 mg/kg-day): 8.58 ± 0.84 fL
PT (300 mg/kg-day): 17.12 s
RBC (300 mg/kg-day): 8.946±0.337 M/µL
Total BW change (300 mg/kg-day): 300.61 g
Total Food Consumed (300 mg/kg-day): 2196 g
